Data reported in patent publication US20210322508A1, “PEPTIDES AND COMPOSITIONS FOR TARGETED TREATMENT AND IMAGING” (SIGNABLOK, INC., priority 2018, published 2021).
Residues, ends and D or L forms follow the SMILES beside them.

Experiments:
TREM-1 [1] = target: T1, TREM-1 (Mus musculus, UniProt Q9JKE2); experiment: colocalization of labeled peptide with TREM-1 in the cell membrane (images); format: cell-based; conditions: GE31 delivered to macrophages by SLP, G-KV21 pre-incubated with HDL, J774 cells
T1 construct: BALB/c murine macrophage J774A.1 cells were grown at 37° C. in six-well tissue culture plates containing glass coverslips; endogenous in cells; host or cells: BALB/c murine macrophage cell line J774A.1 (ATCC)
T1 sequence (O54885 22-114 partner): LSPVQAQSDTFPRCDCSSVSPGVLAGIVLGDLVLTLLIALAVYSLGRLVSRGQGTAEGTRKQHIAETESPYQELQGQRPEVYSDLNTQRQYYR
T1 sequence (Q9JKE2 21-230): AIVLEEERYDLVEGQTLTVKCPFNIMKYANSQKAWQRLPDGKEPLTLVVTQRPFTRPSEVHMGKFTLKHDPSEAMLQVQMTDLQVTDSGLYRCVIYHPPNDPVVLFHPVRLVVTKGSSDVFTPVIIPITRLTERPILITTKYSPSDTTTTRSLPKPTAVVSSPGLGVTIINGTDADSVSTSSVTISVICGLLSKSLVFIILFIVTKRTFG

[2] = system: human pancreatic cancer PANC-1 xenograft; experiment: PANC-1 xenograft mouse model, standalone and with GEM+ABX chemotherapy; format: in vivo
Protocol: Mice were implanted subcutaneously into the right flank with PANC-1 cells in equal parts of serum-free growth medium and Matrigel. Mice were monitored daily and tumor measurements were taken along the length and width using Vernier calipers twice weekly until sacrifice. Tumor volumes were calculated using a modified ellipsoidal formula: (Length×Width^2)/2. […] Body weight were measured. Mean tumor volumes were calculated. […] Survival was evaluated using Kaplan-Meier survival curves.

[3] = penetration of the blood-brain and blood-retinal barrier after systemic administration; format: in vivo; conditions: rhodamine B-labeled; mice intraperitoneally; rats and rabbits intravenously (G-KV21)
TREM-1 [4] = target: T1, TREM-1; experiment: Immunofluorescence colocalization with TREM-1 in the cell membrane; format: cell-based; conditions: J774A.1; 6 h; Dylight 488-labeled, pre-incubated with HDL
Protocol: BALB/c murine macrophage J774A.1 cells were obtained from ATCC (Manassas, Va.) and cultured according to manufacturer's instructions at 37° C. in 6-well tissue culture plates containing glass coverslips until reaching about 50% confluency. Then, cells were incubated for 6 h at 37° C. either with rho B-labeled GF9-SLP that contained Dylight labeled GF9 or TREM-1/TRIOPEP-sSLP that contained Dylight 488-labeled GE31. In colocalization experiments, TREM-1 staining was performed using an Alexa 647-labeled rat anti-mouse TREM-1 antibody (Bio-Rad, Hercules, Calif.) as described in Shen and Sigalov. J Cell Mol Med 2017, 21:2524-2534. Coverslips were mounted using Prolong Gold anti-fade DAPI (4′,6-diamidino-2-phenylindole) mounting medium and photographed using an Olympus BX60 fluorescence microscope. Confocal imaging was performed using a Leica TCS SP5 II laser scanning confocal microscope as described in Shen and Sigalov. J Cell Mol Med 2017, 21:2524-2534.
BALB/c murine macrophage J774A.1 cells were grown at 37° C. in six-well tissue culture plates containing glass coverslips. […] ProLong Gold Antifade DAPI (4′,6′-diamidino-2-phenylindole) mounting medium was used to mount coverslips, and the slides were photographed using an Olympus BX60 fluorescence microscope. […]

[5] = Crossing of blood-retinal and blood-brain barrier (rho B-labeled); conditions: mouse, in vivo
Protocol: Litters of C57BL/6J (Jackson Laboratory, Bar Harbor, Me.) neonatal mice and nursing dams were exposed to a hyperoxia environment (75% oxygen) from postnatal day 7 (P7) to P12 and returned to normoxia until P17. The hyperoxia exposure causes degeneration of the immature retinal vessels. […] Beginning on P7, mice were treated until day P17 by daily i.p. injections of GF9, GF9-SLP, TREM-1/TRIOPEP-sSLP or vehicle (phosphate-buffered saline, pH 7.4; PBS). […] In another subset of experiments, rho B-labeled Gd-containing sSLP were used to confirm the ability of these targeted SLP to cross the BRB in other species (rats and rabbits). In another subset of experiments, neonatal mice and nursing dams were not subjected to a hyperoxia environment and reared in room air (RA). At P17, all mice were humanely sacrificed and their retinas were collected.
Litters of C57BL/6J (Jackson Laboratory, Bar Harbor, Me.) neonatal mice and nursing dams were exposed to a hyperoxia environment (75% oxygen) from postnatal day 7 (P7) to P12 and returned to normoxia until P17. The hyperoxia exposure causes degeneration of the immature retinal vessels. […] Beginning on P7, mice were treated until day P17 by daily i.p. injections of G-KV21, G-TE21 at indicated doses or vehicle (PBS, pH 7.4). In certain embodiments, neonatal mice and nursing dams were not subjected to a hyperoxia environment and reared in room air. […]

healthy C57BL/6 mice = experiment: Mouse tolerability studies; format: in vivo; conditions: free form, i.p., healthy mice
Protocol: Naïve, female C57BL/6 mice at 8 to 10 weeks of age (18 to 21 g) from the Jackson Laboratory were used. […] Clinical observations and body weights were made twice daily.
Naïve, female C57BL/6 mice at 8 to 10 weeks of age (18 to 21 g) from the Jackson Laboratory were used. Animals were randomly grouped (5 mice per group) and i.p. injected with 400 mg/kg G-HV21, G-KV21 or G-TE21. Clinical observations and body weights were made twice daily.

## CC(C)C[C@H](NC(=O)[C@H](Cc1ccccc1)NC(=O)CN)C(=O)N[C@@H](CO)C(=O)N[C@@H](CCCCN)C(=O)N[C@@H](CO)C(=O)N[C@@H](CC(C)C)C(=O)N[C@H](C(=O)N[C@@H](Cc1ccccc1)C(=O)N[C@@H](Cc1c[nH]c2ccccc12)C(=O)N[C@@H](CCC(N)=O)C(=O)N[C@@H](CCC(=O)O)C(=O)N[C@@H](CCC(=O)O)C(=O)N[C@@H](CC[S+](C)[O-])C(=O)N[C@@H](CCC(=O)O)C(=O)N[C@@H](CC(C)C)C(=O)N[C@@H](Cc1ccc(O)cc1)C(=O)N[C@@H](CCCNC(=N)N)C(=O)N[C@@H](CCC(N)=O)C(=O)N[C@@H](CCCCN)C(=O)N[C@H](C(=O)O)C(C)C)C(C)C (stereo partly shown) [G-KV21] (HELM PEPTIDE1{G.F.L.S.K.S.L.V.F.W.Q.E.E.[CS(=O)CC[C@H](N[*:1])C(=O)[*:2]].E.L.Y.R.Q.K.V}$$$$V2.0)
TREM-1 [1]
  colocalization with TREM-1 in the cell membrane: colocalization
[2]
  survival, combined with GEM+ABX chemotherapy: significantly improves survival
[2]; GEM+ABX days 1, 4, 8, 11, 15
  tumor growth, combined with GEM+ABX chemotherapy: sensitizes the tumor to chemotherapy
[3]
  penetration of the BBB and BRB: penetration of the BBB and BRB
TREM-1 [4]
  self-insertion into the cell membrane and colocalization with TREM-1: self-inserts into the cell membrane and colocalizes with TREM-1

## CC(C)C[C@H](NC(=O)[C@H](Cc1ccccc1)NC(=O)CN)C(=O)N[C@@H](CO)C(=O)N[C@@H](CCCCN)C(=O)N[C@@H](CO)C(=O)N[C@@H](CC(C)C)C(=O)N[C@H](C(=O)N[C@@H](Cc1ccccc1)C(=O)O)C(C)C [GF9] (H-GFLSKSLVF-OH)
[5]
  passage of blood-retinal barrier (BRB) and blood-brain barrier (BBB): pass the blood-retinal barrier (BRB) and blood-brain barrier (BBB)
Healthy C57BL/6 mice
  dose at which non-toxic and well tolerated: at least 300 mg/kg
